One series deals with 4T1 breast cancer. The experiment in a line: Murine lung metastasis models (4T1 breast cancer). The series is classed as in vivo, mouse. An excerpt:
Recent advances in cancer immunotherapy have improved patient survival. However, only a minority patients with pulmonary metastatic disease responds to treatment with checkpoint inhibitors. As an alternate approach, we have tested the ability of systemically administered 1V270, a toll-like receptor 7 (TLR7) agonist conjugated to a phospholipid, to inhibit lung metastases in two variant murine 4T1 breast cancer models, as well as in B16 melanoma, and Lewis lung c models.

The test system of series [1] is mBMDCs. The experiment in a line: IL-12 induction in mBMDCs (ELISA). Type of series: cell-based, mouse. The conditions noted are these: 10 μM / dose response. The protocol:
(§1) All these analogs were evaluated for induction of IL-12 cytokine at 10 μM, followed by dose response IL-12 induction for selected analogs. These analogs were also evaluated for exosome release by quantitating EV release in the supernatant post 48 hours incubation with CD63-Tluc-CD9-EmGFP THP-1 reporter cells.
mBMDCs (10^5 cells/200 μL/well) were plated in wells of 96-well plates and treated with test compound (5 μM or 10 μM) or vehicle (0.5% DMSO) overnight.

For series [2], the system named is CD63-Tluc-CD9-EmGFP THP-1 reporter cells. The experiment in a line: CD63 Tluc-CD9 EmGFP THP-1 reporter cell assay (EV/exosome release). The series is classed as cell-based, human. The conditions noted are these: for exosome (EV) release in CD63 reporter THP-1 cells: 48 hours incubation; for luciferase activities in the culture supernatant of CD63 Tluc reporter cells: 634 analogs 10 μM, 48 hours. As for the experimental part: as §1
In the HTS using CD63-Tluc-CD9EmGFP reporter cells (CD63 HTS), PMA (10 ng/ml) was used as a positive control (Shpigelman et al., 2021) and 0.5% DMSO was used as negative control (vehicle, Veh). Briefly, the harvested cells were resuspended in assay media containing 10% exosome-depleted […] (#A2720801, Thermo Fisher Scientific) and plated at 2×10^5 cells/mL (50 μL/well of 384-well plates) (#3674, Corning). Test compounds were added at a final concentration of 10 μM to cells and incubated for 48 hours at 37° C. Subsequently, the plate was centrifuged, supernatant (25 μL) was transferred, and chemiluminescent was measured as recombinant luciferase activity (RLU) after 10 minutes incubation with TurboLuc assay reagent (TurboLuc™ One-Step Glow Assay kit, Thermo Fisher Scientific). The response that measures activation and subsequent release of EVs was calculated using the following formula; % response=100×(compound RLU−average Veh RLU)/(average PMA RLU−average Veh RLU). The viability of cells was assessed using PrestoBlue reagent (Thermo Fisher Scientific). Briefly, PrestoBlue reagent (2.5 μl) was added to the remaining cells and incubated for 30 minutes at room temperature, followed by fluorescence readout at (Ex 560 nm/Em 590 nm) which was normalized to fluorescence data of the Veh wells within the plate to obtain “% viability” calculated as 100×(compound fluorescence/average Veh fluorescence).
CD63 Tluc-CD9 EmGFP THP-1 reporter cell assay. CD63 Tluc CD9 EmGFP THP-1 reporter cell (designated as CD63 Tluc reporter cells) were incubated with 10 μM test compounds, ION (1 μM), or 0.5% DMSO (negative control) in the RPMI 1640 supplemented with exosome-depleted FBS at 5×10^4 cells in 200 μL/well for a 96-well plate for 48 hours at 37° C. Subsequently, the plate was centrifuged, the supernatant was transferred, and chemiluminescence was measured by TurboLuc™ Luciferase One-Step Glow Assay Kit. The response that measures activation and subsequent release of EVs was calculated using the following formula; % response=100×(compound RLU−average Veh RLU)/(average PMA RLU−average Veh RLU).

Series [3] deals with mBMDCs. The experiment in a line: Intracellular Ca2+ influx (Fura-2/Fura-8) in mBMDCs. The series is classed as cell-based, mouse. The following applies: 10 μM, vs Veh 0.5% DMSO / #634.
Another series concerns TLR4. The experiment in a line: TLR4 agonism in murine and human HEK-TLR4 reporter cells. The series is classed as cell-based. An excerpt:
FIG. 37. TLR4 agonism assays with analogs of 2B182c in human and murine TLR4 reporter cells.

The subject of series [4] is mBMDCs. In words: EV release from mBMDCs (differential ultracentrifugation, MRPS). The conditions noted are these: 10 μM, 46-48 h, vs Veh.
Series [5] deals with mBMDCs. In words: Cell viability / cytotoxicity in mBMDCs (MTT). The conditions noted are these: 48 hours culture. Type of series: cell-based, mouse. The protocol: FIGS. 30A-30B. […] After 48 hours incubation, cell viability was determined by MTT assay.
mBMDCs (10^5 cells/200 μL/well) were treated with 10 and 5 μM of a test compound in 96-well plates overnight. After 18 hours of drug treatment, MTT (0.5 mg/ml) was added to each well. The cells were lysed after 6-8 hours incubation, and absorbance values at 570 and 650 nm were measured. PrestoBlue reagent (#A13261, Thermo Fisher Scientific) was used for cell viability assay in CD63 HTS as described earlier.
Cell viability assay. mBMDCs (2×10^6 cells/200 μL/well in RPMI1640 supplemented with dialyzed 10% FBS, or 1.5×10^6 cells/200 μL/well in RPMI1640 supplemented with 10% exosome depleted FBS) were treated with 10 μM of each test compound in 96-well plates. After 46-48 hours of compound treatment, MTT (0.5 mg/mL) was added to each well. The cells were lysed after overnight incubation, and absorbance values at 570 and 650 nm were measured.

The subject of series [6] is mBMDCs. The experiment in a line: Costimulatory molecule expression on mBMDCs (flow cytometry). The series is classed as cell-based, mouse. The following applies: 634 10 μM, ION 1 μM, MPLA 1 μg/mL overnight, vs Veh. As for the experimental part: FIGS. 26A-26D. Flow cytometric analysis for costimulatory molecules on mBMDCs. For costimulatory molecules on mBMDCs, mBMDCs (10^6 cells/mL) were incubated with 634 (10 μM), ION (1 μM), and MPLA (1 μg/mL) for 20-24 hours. 0.5% DMSO was used as a vehicle. After removing the supernatant, cells were washed with the stain buffer and incubated with anti-mouse CD16/32 antibody for blocking FcR. Cells were stained with an antibody cocktail with anti-CD86 (A), anti-CD80 (B), anti-MHC class II (C), and anti-CD40 (D) antibodies for 30 minutes at 4° C. Cells were then washed and stained with DAPI (4′,6-diamino-2phenylindole) for 10 minutes at room temperature to exclude dead cells (DAPI^high) from the analysis. Data were acquired using MACSQuant Analyzer 10 (Miltenyi Biotec, Germany) and analyzed with FlowJo (version 10.8.1).
mBMDCs (10^5 cells/200 μL/well) were treated with a test compound (10 μM) or Veh (0.5% DMSO) overnight and then the costimulatory molecule expression on mBMDCs was evaluated using flow cytometry. The cells were stained with antibodies for CD11c, CD80, CD83, CD86, CD40, and MHC class II. Dead cells (DAPI high) were excluded from the analysis. Percent positive population of CD80, CD83, CD86, CD40, or MHC class II in the gated CD11c population were analyzed.
Costimulatory Molecule Expression Analysis. mBMDCs (10^6 cells/mL) were incubated with 10 μM compound, 1 μM lonomycin and 1 μg/mL MPLA for 20 to 24 hours. 0.5% DMSO was used as vehicle. Cells were incubated with anti-mouse CD16/32 antibody for blocking FcR and stained with anti-CD11c, anti-CD40, […], anti-CD83, […], or anti-MHC class II antibodies for 30 minutes at 4° C. Cells were stained with 4′,6-diamino-2-phenylindole (DAPI) for 10 minutes at RT. Data were acquired using MACSQuant Analyzer 10 (Miltenyi Biotec, Germany) and analyzed with FlowJo (version 10.8.1, Becton Dickinson, Ashland, OR)).

Entries after “also recorded” stand apart in the source; their conditions may differ.

As for `CCCCCCCC/C=C\CCCCCCCC(=O)OCC(COP(=O)(O)OCCNC(=O)c1ccc(Cn2c(=O)[nH]c3c(N)nc(OCCOC)nc32)cc1)OC(=O)CCCCCCC/C=C\CCCCCCCC` (stereo not shown) [1V270], the “lung metastases / tumor cell colonization in the lungs” value with 4T1 breast cancer (4T1 breast cancer models, systemic administration) is listed as “inhibited lung metastases; also recorded: inhibited colonization by tumor cells in the lungs”. The toxic effects result with 4T1 breast cancer (compared to the unconjugated agonist) is recorded as “minimal toxic effects”. Also, the “lung metastasis after intranasal administration” value in the series with 4T1 breast cancer (intranasal administration) is reported as “suppressed lung metastasis”.
On to `Cc1ccccc1-c1cncc(-c2nnc(-c3cccc4ccccc34)o2)c1` [2C183], for which the IL-12 induction entry in the series on mBMDCs [1] is reported as “induced IL-12 in BMDCs”. Also, the “exosome (EV) release in CD63 reporter THP-1 cells” value in series [2] was “enhanced exosome release in CD63 reporter THP-1 cells”.
Regarding `Cc1cccc(-c2cncc(-c3nnc(-c4cccc5ccccc45)o3)c2)c1` [2C185], the IL-12 induction entry with mBMDCs [1] is “enhance exosome release and IL-12 induction; also recorded: induced IL-12 in BMDCs”. Besides, the “exosome (EV) release in CD63 reporter THP-1 cells” value in series [2] was “enhance exosome release; also recorded: enhanced exosome release in CD63 reporter THP-1 cells”.
Consider `CCNC(=O)c1c(NS(=O)(=O)c2cccc3c2N=S=N3)sc(C)c1C` [2E241, 2-(benzo[c][1,2,5]thiadiazole-4-sulfonamido)-N-ethyl-4,5-dimethylthiophene-3-carboxamide], for which the “intracellular Ca^2+ influx by 634 and its SAR analogs (Fura-2)” value with mBMDCs [3] is given as “loss of potency; also recorded: did not induce Ca^2+ influx in mBMDCs; also recorded: negative”. Besides, the “luciferase activities in the culture supernatant of CD63 Tluc reporter cells” value (shortened to “luciferase activities”) in series [2] was “did neither increase luciferase activities”.
For the molecule `CCOC(=O)c1c(N(C)S(=O)(=O)c2cccc3c2N=S=N3)sc(C)c1C` [2F186, Ethyl 4,5-dimethyl-2-(N-methylbenzo[c][1,2,5]thiadiazole-4-sulfonamido)thiophene-3-carboxylate], the “intracellular Ca^2+ influx by 634 and its SAR analogs (Fura-2)” value in the series on mBMDCs [3] is recorded as “did not induce Ca^2+ influx in mBMDCs; also recorded: negative”. Further, the “luciferase activities” value in series [2] is on record as “did neither increase luciferase activities”.
Regarding `CC(=O)Nc1cccc(-n2c(SCC(=O)NC3CCCCC3)nc3c4cc(-c5ccco5)ccc4n(C)c3c2=O)c1` [2G112], the TLR4 agonistic activity result in the series with TLR4 is “did not retain equal potency”.
Take `CCCCCCCCC(=O)Nc1cccc(-n2c(SCC(=O)NC3CCCCC3)nc3c4cc(-c5ccco5)ccc4n(C)c3c2=O)c1` [2G113]: in the series with TLR4, the TLR4 agonistic activity result is given as “did not retain equal potency”.
Turning to `CCCCCCCC/C=C\CCCCCCCC(=O)OC[C@H](COP(=O)(O)OCCNC(=O)CCCC(=O)Oc1cccc(-n2c(SCC(=O)NC3CCCCC3)nc3c4cc(-c5ccco5)ccc4n(C)c3c2=O)c1)OC(=O)CCCCC/C=C\CCCCCCCC` [2G177], in the series with TLR4, the TLR4 agonistic activity result is “slightly less potent than 2G053; also recorded: the potency at the highest concentration was better”.
Consider `Cn1c2ccc(-c3ccco3)cc2c2nc(SCC(=O)NC3CCCCC3)n(-c3cccc(OCOP(=O)(O)O)c3)c(=O)c21` [2G202], for which, in the series with TLR4, the TLR4 agonistic activity entry is listed as “weakly active”.
With `Cc1sc(NS(=O)(=O)c2cccc3nsnc23)c(C(=O)O)c1C` [2H013, 2-(benzo[c][1,2,5]thiadiazole-4-sulfonamido)-4,5-dimethylthiophene-3-carboxylic acid], the “intracellular Ca^2+ influx by 634 and its SAR analogs (Fura-2)” value in the series with mBMDCs [3] was “did not induce Ca^2+ influx in mBMDCs; also recorded: negative”. Besides, the “luciferase activities” value in series [2] is on record as “did neither increase luciferase activities”.
Consider `c1ccc(-c2cn(-c3cncc(-c4cccs4)c3)nn2)cc1` [2H050], for which, in the series with mBMDCs [1], the IL-12 induction entry is given as “significantly enhanced cytokine IL-12 induction”.
Same read-out and setting: for `COc1ccc(-c2nnc(-c3cccnc3)o2)cc1OC` [#1310] the value was “as potent as #645”.
Take `Clc1ccc(-c2nnc(-c3cccnc3)o2)cc1` [#1311]: the IL-12 induction result with mBMDCs [1] is listed as “as potent as #645”.
With `CC(=O)OCOC(=O)CN(CC(=O)OCOC(C)=O)c1ccccc1OCCOc1ccccc1N(CC(=O)OCOC(C)=O)CC(=O)OCOC(C)=O` [BAPTA-AM, reference compound], the “number of EV particles released in the culture supernatant” value (“number of EV particles released” for short) with mBMDCs [4] is “increased EV release by mBMDC; also recorded: enhanced particle release from dead and dying cells”. For the same molecule, the “cytotoxicity of Ca influx inhibitors / chelators in mBMDC culture” value with mBMDCs [5] is “cytotoxic; also recorded: toxic”.
Consider `Cc1nnsc1C(=O)Nc1ccc(-n2nc(C(F)(F)F)cc2C(F)(F)F)cc1` [BTP2, reference compound], for which, in the series with mBMDCs [4], the “number of EV particles released” value is reported as “increased EV release by mBMDC”. The “cytotoxicity of Ca influx inhibitors / chelators in mBMDC culture” value in the series on mBMDCs [5] was “cytotoxic”.
Turning to `O=C(O)CN(CCOCCOCCN(CC(=O)O)CC(=O)O)CC(=O)O` [EGTA, reference compound], in the series on mBMDCs [4], the “number of EV particles released” value is “increased EV release by mBMDC; also recorded: enhanced particle release from dead and dying cells”. Also, in the series on mBMDCs [5], the “cytotoxicity of Ca influx inhibitors / chelators in mBMDC culture” value is recorded as “cytotoxic; also recorded: toxic”.
For `C[C@H](CCC(=O)O)C[C@H](C)C[C@H](C)C(=O)/C=C(\O)[C@H](C)C[C@H](C)C/C=C/[C@@H](C)[C@@H](O)[C@@H](C)[C@@H](O)C[C@@H]1CC[C@@](C)([C@H]2CC[C@@](C)([C@@H](C)O)O2)O1` [ION, ionomycin, reference compound], in the series with mBMDCs [6], the “CD80 expression on mBMDCs” value was “increased CD86 and CD80 expression on mBMDCs”; the “CD86 expression on mBMDCs” value was “increased CD86 and CD80 expression on mBMDCs”.

The values above are taken from patent US20250281465A1, “MOLECULES THAT ENHANCE EXTRACELLULAR VESICLE RELEASE” (priority 2022, published 2025).
